In patent US20120034613A1, “Apparatus and Method for Testing Relationships Between Gene Expression and Physical Appearance of Skin” (NSE Products, Inc., priority 2010, published 2012):

Test system: EpidermFT™ Skin Model (EFT-400) full thickness skin cultures
Experiment: Affymetrix GeneChip HG U133 Plus 2.0 microarray global gene expression, agent-exposed vs untreated skin cultures
Format: cell-based, human
[1] = probe 239272_at, Table 3 skin structure
[2] = probe 1552319_a_at, 0.5%, 24 hr
[3] = probe 1552578_a_at, 0.5%, 24 hr
[4] = probe 1554252_a_at, 0.5%, 24 hr
[5] = probe 1554741_s_at, 0.5%, 24 hr
[6] = probe 1554921_a_at, 0.5%, 24 hr
[7] = probe 1554980_a_at, 0.5%, 24 hr
[8] = probe 1554997_a_at, 0.5%, 24 hr
[9] = probe 1555103_s_at, 0.5%, 24 hr
[10] = probe 1555416_a_at, 0.5%, 24 hr
[11] = probe 1556410_a_at, 0.5%, 24 hr
[12] = probe 1558143_a_at, 0.5%, 24 hr
[13] = tissue exposed to salicin, skin structure gene, Table 4
[14] = tissue exposed to salicin, skin structure gene, Table 4, direction down
[15] = tissue exposed to salicin, skin structure gene, Table 4, direction up

OCc1ccccc1O[C@@H]1O[C@H](CO)[C@@H](O)[C@H](O)[C@H]1O [Salicin, 2-(Hydroxymethyl)phenyl β-D-glucospyranoside]
Direction NFKBIZ (probe 223217_s_at, 0.5%, 24 hr): up | Fold change NFKBIZ (probe 223217_s_at, 0.5%, 24 hr): 2.35 | Direction SLC25A19 (probe 223222_at, 0.5%, 24 hr): up | Fold change SLC25A19 (probe 223222_at, 0.5%, 24 hr): 2.243 | Direction HAS3 (probe 223541_at, 0.5%, 24 hr): down | Fold change HAS3 (probe 223541_at, 0.5%, 24 hr): 3.713 | Direction TRPC4 (probe 224220_x_at, 0.5%, 24 hr): up | Fold change TRPC4 (probe 224220_x_at, 0.5%, 24 hr): 2.708 | Direction CNFN (probe 224329_s_at, 0.5%, 24 hr): down | Fold change CNFN (probe 224329_s_at, 0.5%, 24 hr): 5.442 | Direction H2AFJ (probe 225245_x_at, 0.5%, 24 hr): down | Fold change H2AFJ (probe 225245_x_at, 0.5%, 24 hr): 2.328 | Direction ABHD2 (probe 225337_at, 0.5%, 24 hr): up | Fold change ABHD2 (probe 225337_at, 0.5%, 24 hr): 2.704 | Direction NRP2 (probe 225566_at, 0.5%, 24 hr): up | Fold change NRP2 (probe 225566_at, 0.5%, 24 hr): 3.198 | Direction FGF11 (probe 227271_at, 0.5%, 24 hr): down | Fold change FGF11 (probe 227271_at, 0.5%, 24 hr): 2.672 | Direction HS3ST3B1 (probe 227361_at, 0.5%, 24 hr): up | Fold change HS3ST3B1 (probe 227361_at, 0.5%, 24 hr): 3.41 | Direction SERPINE2 (probe 227487_s_at, 0.5%, 24 hr): up | Fold change SERPINE2 (probe 227487_s_at, 0.5%, 24 hr): 3.148 | Direction ASAM (probe 228082_at, 0.5%, 24 hr): up | Fold change ASAM (probe 228082_at, 0.5%, 24 hr): 2.108 | Direction IL20RB (probe 228575_at, 0.5%, 24 hr): down | Fold change IL20RB (probe 228575_at, 0.5%, 24 hr): 10.04 | Direction SCN9A (probe 229199_at, 0.5%, 24 hr): up | Fold change SCN9A (probe 229199_at, 0.5%, 24 hr): 3.818 | Direction CREB5 (probe 229228_at, 0.5%, 24 hr): up | Fold change CREB5 (probe 229228_at, 0.5%, 24 hr): 9.768 | Direction TNS4 (probe 230398_at, 0.5%, 24 hr): down | Fold change TNS4 (probe 230398_at, 0.5%, 24 hr): 2.738 | Direction SLC20A1 (probe 230494_at, 0.5%, 24 hr): up | Fold change SLC20A1 (probe 230494_at, 0.5%, 24 hr): 2.526 | Direction KLF15 (probe 231015_at, 0.5%, 24 hr): up | Fold change KLF15 (probe 231015_at, 0.5%, 24 hr): 2.338 | Direction KGFLP2 (probe 231031_at, 0.5%, 24 hr): up | Fold change KGFLP2 (probe 231031_at, 0.5%, 24 hr): 3.34 | Direction EPPK1 (probe 232165_at, 0.5%, 24 hr): down | Fold change EPPK1 (probe 232165_at, 0.5%, 24 hr): 12.4 | Direction ELOVL3 (probe 234513_at, 0.5%, 24 hr): down | Fold change ELOVL3 (probe 234513_at, 0.5%, 24 hr): 2.048 | Direction KRTCAP3 (probe 235148_at, 0.5%, 24 hr): down | Fold change KRTCAP3 (probe 235148_at, 0.5%, 24 hr): 2.158 | Direction GSTA4 (probe 235405_at, 0.5%, 24 hr): down | Fold change GSTA4 (probe 235405_at, 0.5%, 24 hr): 3.3 | Direction SGPP2 (probe 238567_at, 0.5%, 24 hr): down | Fold change SGPP2 (probe 238567_at, 0.5%, 24 hr): 5.641 | Direction MMP28 [1]: down | Fold change MMP28 [1]: 4.074 | Direction MMP28 (probe 239273_s_at, 0.5%, 24 hr): down | Fold change MMP28 (probe 239273_s_at, 0.5%, 24 hr): 2.678 | Direction DSEL (probe 244852_at, 0.5%, 24 hr): up | Fold change DSEL (probe 244852_at, 0.5%, 24 hr): 2.251 | Direction KLK8 [2]: down | Fold change KLK8 [2]: 4.867 | Direction MYO3B [3]: up | Fold change MYO3B [3]: 2.338 | Direction SNX21 (probe 1553960_at, 0.5%, 24 hr): down | Fold change SNX21 (probe 1553960_at, 0.5%, 24 hr): 2.031 | Direction LASS3 [4]: down | Fold change LASS3 [4]: 15.34 | Direction FGF7 /// KGFLP1 /// KGFLP2 [5]: up | Fold change FGF7 /// KGFLP1 /// KGFLP2 [5]: 2.506 | Direction SCEL [6]: down | Fold change SCEL [6]: 6.1 | Direction ATF3 [7]: up | Fold change ATF3 [7]: 2.623 | Direction PTGS2 [8]: up | Fold change PTGS2 [8]: 6.813 | Direction FGF7 [9]: up | Fold change FGF7 [9]: 2.35 | Direction ALOX15B [10]: down | Fold change ALOX15B [10]: 2.215 | Direction KRTAP19-1 [11]: up | Fold change KRTAP19-1 [11]: 24.65 | Direction BCL2L11 [12]: up | Fold change BCL2L11 [12]: 2.347 | Direction LCE1E (probe 1559224_at, 0.5%, 24 hr): down | Fold change LCE1E (probe 1559224_at, 0.5%, 24 hr): 4.811 | Direction LCE1B (probe 1560531_at, 0.5%, 24 hr): down | Fold change LCE1B (probe 1560531_at, 0.5%, 24 hr): 71.235 | Direction ITGB1 (probe 1561042_at, 0.5%, 24 hr): up | Fold change ITGB1 (probe 1561042_at, 0.5%, 24 hr): 2.151 | Direction FLG2 (probe 1569410_at, 0.5%, 24 hr): down | Fold change FLG2 (probe 1569410_at, 0.5%, 24 hr): 45.91 | Direction COL4A1 (211981_at) [13]: up | Direction FBN2 (203184_at) [13]: up | Direction FN1 (214702_at) [13]: up | Direction FNDC3A (215910_s_at) [13]: up | Direction FOXO1 (202724_s_at) [13]: up | Direction IGFBP5 (211958_at) [13]: up | Direction ITGB1 (1561042_at) [13]: up | Direction KRT5 (201820_at) [13]: down | Direction KRT9 (208188_at) [13]: down | Direction MMP28 (239272_at) [13]: down | Direction SOD2 (215078_at) [13]: up | Direction TIMP3 (201150_s_at) [13]: up | Direction TNC (216005_at) [13]: up | Direction TNFAIP3 (202643_s_at) [13]: up | Fold change KRT5 (201820_at) [14]: 3.737 | Fold change KRT9 (208188_at) [14]: 3.737 | Fold change MMP28 (239272_at) [14]: 4.074 | Fold change COL4A1 (211981_at) [15]: 2.121 | Fold change FBN2 (203184_at) [15]: 2.028 | Fold change FN1 (214702_at) [15]: 2.71 | Fold change FNDC3A (215910_s_at) [15]: 3.663 | Fold change FOXO1 (202724_s_at) [15]: 2.098 | Fold change IGFBP5 (211958_at) [15]: 2.712 | Fold change ITGB1 (1561042_at) [15]: 2.151 | Fold change SOD2 (215078_at) [15]: 5.712 | Fold change TIMP3 (201150_s_at) [15]: 2.058 | Fold change TNC (216005_at) [15]: 2.719 | Fold change TNFAIP3 (202643_s_at) [15]: 6.915
